Results from patent US20100239563A1 (priority 2001, published 2010).

Columns and labels:
[1] = tested on: influenza A virus A/WSN-HK (H3N1); type: cell-based
[2] = tested on: influenza B virus strain Massachusetts/6/93

## NC12CC3CC(CC(C3)C1)C2 [amantadine, 1-adamantanamine]
[1]
  titer of infectious virus particles over infection sequences: increased, in spite of the amantadine treatment

## N#CC(=C(N)Sc1ccccc1N)C(C#N)=C(N)Sc1ccccc1N [U0126, 1,4-diamino-2,3-dicyano-1,4-bis(2-aminophenylthio)butadiene]
[1]
  titer of infectious virus particles over infection sequences: significant reduction of the influenza virus particles
[2]
  reduction of the number of newly formed infectious influenza B virus particles: approx. 90%
